Values quoted from earlier work as cited in US12649947B2, “Method of treatment using genetic predictors of a response to treatment with CRHR1 antagonists” (HMNC Holding GmbH, priority 2015, dated 2026).

System: mice overexpressing CRH in the forebrain

For `COCC(COC)Nc1nc(C)nc2c(-c3ccc(Cl)cc3Cl)c(C)nn12` [DMP696], the “effect on REM sleep enhancement” value is listed as “could reverse the REM enhancement”.
